# Experimental data from patent publication US20120289501A1, “Benzene-fused 6-membered oxygen-containing heterocyclic derivatives of bicyclic heteroaryls” (NOVARTIS AG, priority 2009, published 2012).
# Molecular target: IGF1R (Homo sapiens, UniProt P08069)
# Assay: Cellular IGF-1R assay: inhibition of IGF1R phosphorylation in transduced Hek293 cells, capture ELISA (MSD)
# Type: cell-based
# Set-up: Hek293 cells transduced with the corresponding receptors; expressed in transfected cells; host or cells: Hek293 (Hek293-IGF1R)
# Protocol: In this assay the activity of the compounds of the invention against Insulin-like growth factor I (IGF-1) induced autophosphorylation of the IGF-IR is determined. The assay is conducted as follows: Compound-mediated inhibition of IGF1R and INSR phosphorylation in Hek293 cells transduced with the corresponding receptors is assessed in a capture ELISA format using the MSD (Meso Scale Discovery) platform. Briefly, 30′000 cells washed and diluted in starvation medium (DMEM high glucose supplemented with 0.1% BSA) are seeded in 90 μL per well into 96-well plates pre-coated with poly-D-lysine (0.1 mg/mL in PBS/0). After 24 h incubation at 37° C. and 5% CO2, dose-response effects are determined with 3-fold serial compound dilutions, starting at 10 μM. The final vehicle concentration is 0.1% DMSO in all wells. Following pre-incubation with compounds for 1 h, receptor phosphorylation is triggered by a 10 min exposure to 1.0 ng/μL IGF for Hek293-IGF1R cells, and 5.0 ng/μL insulin for Hek293-InsR cells. Cell lysis is achieved by addition of 80 μL MSD lysis buffer per aspirated well, incubation on ice for 20 min, and a freeze-thaw cycle. Target phosphorylation is then assessed by transferring volumes corresponding to approx. 6 μg Hek293-IGF1R or 0.6 μg Hek293-InsR lysates to MSD assay plates pre-coated with total-IGF1R or total-InsR Abs, respectively. After incubation for 2 h at rt, wells are exposed for 1 hr to a rabbit monoclonal antibody (CST #3024, 1:1000) detecting pIGF1R(Tyr1135/1136) as well as pINSR(Tyr1150/1151). Immune complexes are detected by a SULFO-Tag™-coupled anti-rabbit IgG antibody in the presence of 150 μL MSD read-buffer. Light emission at 620 nm triggered by application of electric current is recorded on a MSD SectorImager 6000. Acquired raw data (mean Ru-ECL units) are processed in an Excel analysis template. The plate blank (MSD lysis buffer) is subtracted from all data points. The effect of a particular test compound concentration on receptor phosphorylation is expressed relative to the window defined by ligand-stimulated vs unstimulated control cells (set as 100%). IC50 values [nM] are determined using 4-parametric curve-fitting (XLfit software, V4.3.2). Alternatively, the assay can be conducted with a slightly different format; Compound-mediated inhibition of IGF-1R and InsR phosphorylation in HEK293 cells overexpressing the corresponding receptors were assessed by quantitative Western blot using an Odyssey infrared imager as readout.
# Compound-mediated inhibition of IGF1R and INSR phosphorylation in Hek293 cells transduced with the corresponding receptors is assessed in a capture ELISA format using the MSD (Meso Scale Discovery) platform. Briefly, 30′000 cells washed and diluted in starvation medium (DMEM high glucose supplemented with 0.1% BSA) are seeded in 90 μL per well into 96-well plates pre-coated with poly-D-lysine (0.1 mg/mL in PBS/O). After 24 h incubation at 37° C. and 5% CO2, dose-response effects are determined with 3-fold serial compound dilutions, starting at 10 μM. The final vehicle concentration is 0.1% DMSO in all wells. Following pre-incubation with compounds for 1 h, receptor phosphorylation is triggered by a 10 min exposure to 1.0 ng/μL IGF for Hek293-IGF1R cells, and 5.0 ng/μL insulin for Hek293-InsR cells. Cell lysis is achieved by addition of 80 μL MSD lysis buffer per aspirated well, incubation on ice for 20 min, and a freeze-thaw cycle. Target phosphorylation is then assessed by transferring volumes corresponding to approx. 6 μg Hek293-IGF1R or 0.6 μg Hek293-lnsR lysates to MSD assay plates pre-coated with total-IGF1R or total-lnsR Abs, respectively. After incubation for 2 h at rt, wells are exposed for 1 hr to a rabbit monoclonal antibody (CST #3024, 1:1000) detecting pIGF1R(Tyr1135/1136) as well as pINSR(Tyr1150/1151). Immune complexes are detected by a SULFO-Tag™-coupled anti-rabbit IgG antibody in the presence of 150 μL MSD read-buffer. […]
# Sequence of IGF1R (P08069 31-1367): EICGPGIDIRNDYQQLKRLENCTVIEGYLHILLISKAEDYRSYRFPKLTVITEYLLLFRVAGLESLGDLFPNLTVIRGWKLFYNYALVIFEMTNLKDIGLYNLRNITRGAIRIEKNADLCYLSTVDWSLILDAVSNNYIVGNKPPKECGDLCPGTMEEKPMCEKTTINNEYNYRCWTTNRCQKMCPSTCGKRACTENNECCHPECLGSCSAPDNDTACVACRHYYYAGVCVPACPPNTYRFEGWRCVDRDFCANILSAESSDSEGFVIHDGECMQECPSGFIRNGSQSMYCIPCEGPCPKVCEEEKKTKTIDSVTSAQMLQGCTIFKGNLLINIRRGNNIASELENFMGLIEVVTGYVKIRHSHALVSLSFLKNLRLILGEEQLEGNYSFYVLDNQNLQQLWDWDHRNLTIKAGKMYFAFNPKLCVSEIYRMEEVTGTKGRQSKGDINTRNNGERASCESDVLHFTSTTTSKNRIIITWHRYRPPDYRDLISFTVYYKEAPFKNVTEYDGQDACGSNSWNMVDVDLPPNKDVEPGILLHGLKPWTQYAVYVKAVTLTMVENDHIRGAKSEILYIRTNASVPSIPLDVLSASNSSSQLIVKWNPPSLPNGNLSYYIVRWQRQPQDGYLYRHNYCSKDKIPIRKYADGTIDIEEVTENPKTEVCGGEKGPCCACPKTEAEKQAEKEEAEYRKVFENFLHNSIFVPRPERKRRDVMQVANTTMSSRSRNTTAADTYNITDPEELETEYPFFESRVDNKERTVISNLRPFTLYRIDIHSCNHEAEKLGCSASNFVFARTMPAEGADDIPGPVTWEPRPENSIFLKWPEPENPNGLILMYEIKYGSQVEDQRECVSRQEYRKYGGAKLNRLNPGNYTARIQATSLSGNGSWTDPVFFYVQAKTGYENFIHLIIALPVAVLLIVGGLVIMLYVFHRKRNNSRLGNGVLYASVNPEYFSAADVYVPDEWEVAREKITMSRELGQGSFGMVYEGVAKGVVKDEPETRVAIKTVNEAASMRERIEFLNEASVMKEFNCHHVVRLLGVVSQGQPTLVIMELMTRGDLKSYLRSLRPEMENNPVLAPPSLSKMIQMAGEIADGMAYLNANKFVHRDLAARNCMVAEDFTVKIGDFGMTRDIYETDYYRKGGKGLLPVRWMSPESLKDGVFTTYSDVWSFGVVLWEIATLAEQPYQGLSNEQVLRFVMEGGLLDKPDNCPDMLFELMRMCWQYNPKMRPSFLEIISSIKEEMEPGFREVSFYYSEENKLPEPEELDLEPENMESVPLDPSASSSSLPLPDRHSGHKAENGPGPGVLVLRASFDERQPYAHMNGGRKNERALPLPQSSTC
row,IC50,Molecule
1,34 nM,"Nc1ncnc2c1c(-c1ccc3c(c1)OC(c1ccccc1)CC3)cn2[C@H]1C[C@@H](CN2CCNC(=O)C2)C1 (mixture of isomers) [Example 28, (R,S)-4-{3-[4-amino-5-(2-phenyl-chroman-7-yl)-pyrrolo[2,3-d]pyrimidin-7-yl]-cyclobutylmethyl}-piperazin-2-one]"
2,95 nM,"Nc1ncnc2c1c(-c1ccc3c(c1)OC(c1ccccc1)CC3)cn2[C@H]1C[C@@](O)(CO)C1 (mixture of isomers) [Example 8, (R,S)-(E)-3-[4-Amino-5-(2-phenyl-chroman-7-yl)-pyrrolo[2,3-d]pyrimidin-7-yl]-1-hydroxymethyl-cyclobutanol]"
3,49 nM,"CN1CCN(CC2CC(n3cc(-c4ccc5c(c4)OC(c4ccccc4)CC5)c4c(N)ncnc43)C2)CC1=O (stereo not shown) [Example 46, 4-{3-[4-Amino-5-(2-phenyl-chroman-7-yl)-pyrrolo[2,3-d]pyrimidin-7-yl]-cyclobutylmethyl}-1-methyl-piperazin-2-one]"
4,50 nM,"Nc1ncnc2c1c(-c1ccc3c(c1)OC(C1CCCO1)CC3)cn2C1CC(O)(CO)C1 (mixture of isomers) [Example 29, (E)-3-{4-Amino-5-[2-(tetrahydro-furan-2-yl)-chroman-7-yl]-pyrrolo[2,3-d]pyrimidin-7-yl}-1-hydroxymethyl-cyclobutanol]"
5,31 to 112 nM,"Nc1ncnc2c1c(-c1ccc3c(c1)OC(c1ccccc1)CC3)cn2C1CC(O)(CO)C1 (single isomer, unassigned) [Example 27]"
6,109 nM,"Nc1ncnc2c1c(-c1ccc3c(c1)OC(c1ccccn1)CC3)cn2[C@H]1C[C@@H](CN2CC[S+]([O-])CC2)C1 (mixture of isomers) [Example 63, (±)-7-(cis-3-(1-oxo-thiomorpholin-4-ylmethyl)cyclobutyl)-5-(2-(pyridin-2-yl)chroman-7-yl)-7H-pyrrolo[2,3-d]pyrimidin-4-amine]"
7,136 nM,"Nc1ncnc2c1c(-c1ccc3c(c1)OC(c1ccccc1)CC3)cn2[C@H]1CC[C@@H](NC(=O)C2CC2)CC1 (mixture of isomers) [Example 51, (±)-N-(cis-4-(4-amino-5-(2-phenylchroman-7-yl)-7H-pyrrolo[2,3-d]pyrimidin-7-yl)cyclohexyl)cyclopropanecarboxamide]"
8,158 nM,"Nc1ncnc2c1c(-c1ccc3c(c1)OC(c1ccccc1)CC3)cn2[C@H]1C[C@](O)(CO)C1 (mixture of isomers) [Example 9, (R,S)—(Z)-3-[4-amino-5-(2-phenyl-chroman-7-yl)-pyrrolo[2,3-d]pyrimidin-7-yl]-1-hydroxymethyl-cyclobutanol]"
9,76 nM,"Nc1nccn2c1c(-c1ccc3c(c1)OC(c1ccccc1)CC3)nc2[C@H]1C[C@@H](CO)C1 (mixture of isomers) [Example 3, (R,S)-{cis-3-[8-Amino-1-(2-phenyl-chroman-7-yl)-imidazo[1,5-a]pyrazin-3-yl]-cyclobutyl}-methanol]"
10,24 nM,"(R,S)—N-{cis-3-[4-Amino-5-(2-phenyl-chroman-7-yl)-pyrrolo[2,3-d]pyrimidin-7-yl]-cyclobutylmethyl}-methanesulfonamide [Example 17]"
11,395 nM,"Nc1ncnc2c1c(-c1ccc3c(c1)OC(C1CCCO1)CC3)cn2C1CC(O)(CO)C1 (single isomer, unassigned) [Example 33, (u)-(E)-3-{4-amino-5-[2-(tetrahydro-furan-2-yl)-chroman-7-yl]-pyrrolo[2,3-d]pyrimidin-7-yl}-1-hydroxymethyl-cyclobutanol]"

row,Molecule,IC50
1,"Nc1ncnc2c1c(-c1ccc3c(c1)OC(c1ccccc1)CC3)cn2[C@H]1C[C@@H](CN2[C@@H]3CC[C@H]2C[C@H](O)C3)C1 (mixture of isomers) [Example 36, (R,S)-8-{cis-3-[4-Amino-5-(2-phenyl-chroman-7-yl)-pyrrolo[2,3-d]pyrimidin-7-yl]-cyclobutylmethyl}-8-aza-bicyclo[3.2.1]octan-3-ol]",87 nM
2,"CC1(O)CC(c2nc(-c3ccc4c(c3)O[C@@H](c3ccccc3)CC4)c3c(N)nccn23)C1 (stereo partly drawn) [Example 19, (R,S)—(Z)-3-[8-Amino-1-(2-phenyl-chroman-7-yl)-imidazo[1,5-a]pyrazin-3-yl]-1-methylcyclobutanol]",158 nM
